The record followed here is patent publication US9962383B2, “Compounds, compositions and methods of agelastatin alkaloids” (Massachusetts Institute of Technology, priority 2013, dated 2018).

Assay type in all cases: cell-based, human
One assay relates to synchronized U-937 cells. Put plainly: Cell cycle arrest in thymidine-synchronized U-937 cells. The settings on record: 16 hours, PI, flow cytometry.
The next assay deals with tubulin dynamics. Put plainly: Tubulin microscopy with HeLa cells. The following applies: 16 hours, confocal microscopy.
A further assay relates to HeLa. Put plainly: 48-hour IC50 by SRB, HeLa cervical carcinoma cells. Here is the method: (§1) Cells were grown in media supplemented with fetal bovine serum (FBS) and antibiotics (100 μg/mL penicillin and 100 U/mL streptomycin). […] Cells were incubated at 37° C. in a 5% CO2, 95% humidity atmosphere.
(§2) Adherent cells (HeLa, A549, BT549, and IMR90) were added into 96-well plates (5,000 cells/well for HeLa cell line; 2,000 cells/well for A549, BT549, and IMR90 cell lines) in 100 μL media and were allowed to adhere for 2-3 hours. Compounds were solubilized in DMSO as 100× stocks, added directly to the cells (100 μL final volume), and tested over a range of concentrations (1 nM to 10 μM) in triplicate (1% DMSO final) on a half-log scale. DMSO and cell-free wells served as the live and dead control, respectively. […] Briefly, media was removed from the plate, and cells were fixed by the addition of 100 μL cold 10% trichloroacetic acid in water. After incubating at 4° C. for 1 h, the plates were washed in water and allowed to dry. Sulforhordamine B was added as a 0.057% solution in 1% acetic acid (100 μL), and the plates were incubated at room temperature for 30 min, washed in 1% acetic acid, and allowed to dry. […] IC50 values were determined from three or more independent experiments using TableCurve (San Jose, Calif.).

Another assay deals with BT549. Put plainly: 48-hour IC50 by SRB, BT549 breast carcinoma cells. Here is the method: as §1, §2
Another assay has as its system IMR90. Put plainly: 48-hour IC50 by SRB, IMR90  lung fibroblasts. The settings on record: IMR90 immortalized lung fibroblasts. On the procedure: as §1, §2
The next assay relates to A549. Put plainly: 48-hour IC50 by SRB, A549 non-small cell lung carcinoma cells. Here is the method: as §1, §2
A further assay relates to U-937 cells. Put plainly: Apoptosis in U-937 cells with Annexin V-FITC and propidium iodide. The following applies: 21 hours, flow cytometry. On the procedure:
FIG. 3. […] Analysis of phosphatidylserine exposure and propidium iodide inclusion at 21 hours in U-937 cells. Compounds were tested at indicated concentrations and STS was used as a positive control for apoptosis. Samples were analyzed by flow cytometry for the relative timing of phosphatidylserine exposure relative to PI inclusion. FITC=fluorescein isothiocyanate; PI=propidium iodide; STS=staurosporine.
DMSO stocks of compounds were added to a 24-well plate in singlicate (0.2% DMSO final). […] Following treatment, the cell suspensions were transferred to flow cytometry tubes and pelleted (500 g, 3 min). The media was removed by aspiration, and cells were resuspended in 200 μL AnnV binding buffer (10 mM HEPES, pH 7.4, 140 mM NaCl, 2.5 mM CaCl2) with 5 μg/mL PI and 1:90 dilution of AnnV. Samples were analyzed using flow cytometry.

In another assay the test system is Jurkat. Put plainly: 48-hour IC50 by MTS, Jurkat acute T-cell leukemia cells. On the procedure: as §1
(§3) In a 96-well plate, compounds were pre-added as DMSO stocks (1% final) in triplicate to achieve final concentrations of 1 nM to 10 μM on a half log scale. DMSO and cell-free wells served as the live and dead control, respectively. […] IC50 values were determined from three or more independent experiments using TableCurve (San Jose, Calif.).

In assay [1] the test system is procaspase-3 and PARP-1 cleavage. Put plainly: Western blot analysis of procaspase-3 and PARP-1 cleavage in U-937 cells. The settings on record: 24 hours. Here is the method:
FIG. 2. […] Western blot analysis of procaspase-3 and PARP-1 cleavage at 24 hours in U-937 cells using β-actin as loading control. Compounds were tested at indicated concentrations and STS (10 nM); C3=caspase-3; PARP=poly(ADP-ribose) polymerase 1; PC3=procaspase-3; STS=staurosporine.
Background: A western blot detects proteins with antibodies after separation by electrophoresis.

A further assay relates to U-937. Put plainly: 48-hour IC50 by MTS, U-937 lymphoma cells. Here is the method: as §1, §3
Another assay deals with CA46. Put plainly: 48-hour IC50 by MTS, CA46 Burkitt's lymphoma cells. On the procedure: as §1, §3

Procedure for synchronized U-937 cells: Samples were fixed, treated with an RNAse, stained with PI, and analyzed by flow cytometry. Taxol, a microtubule stabilizer, was used as a positive control. Error bars represent standard deviation of the mean, n=3. * p<0.01. PI=propidium iodide.
U-937 cells were split to 50% confluency (250,000 cells/mL) and treated with 2 mM thymidine for 10 hours. The cells were then pelleted (500 g, 3 minutes) and washed with PBS before being resuspended in thymidine-free media and allowed to recover for 13 hours. The cells were then re-blocked with 2 mM thymidine for 10 hours, and then washed with PBS as before and resuspended in media (250,000 cells/mL).
DMSO stocks of compounds were added to a 24-well plate in triplicate (0.2% DMSO final), after which 1 mL of the prepared cell suspension was added. Following a 16 h incubation, the cell suspensions were transferred to 2 mL tubes and pelleted (600 g, 3 min). The media was removed by aspiration, and the cells were fixed with 0.5 mL of ice cold 70% ethanol with vortexing. The samples were fully fixed at −20° C. for 3 hours. The samples were then pelleted (1000 g, 5 min) and the supernatant was removed via aspiration. […] Prior to reading, the samples were taken up in 150 μL of 50 μg/mL propidium iodide in PBS and transferred to flow cytometry tubes. Samples were analyzed based on whole, single cells.
Procedure for tubulin dynamics: HeLa cells were treated with compound for 16 hours, fixed, stained, and visualized using confocal microscopy.
Round, 1.5 mm coverslips (No. 1.5) were sterilized with ultraviolet light and placed in a 12-well plate. HeLa cells (100,000 cells/well) were added and allowed to adhere for eight hours. Compounds were then added as DMSO stocks to achieve a final DMSO concentration of 1%, and the plates were returned to the incubator for 16 hours.
Following incubation, the media was removed, and the coverslips were fixed with 0.5 mL Microtubulin Stabilizing Buffer (MTSB, 80 mM PIPES, pH 6.8, 1 mM MgCl2, 5 mM EGTA, 0.5% TX-100)+0.5% glutaraldehyde for 10 minutes at room temperature, after which the fixative was removed and the sample was quenched with the addition of 0.5 mL of freshly-prepared 1 mg/mL NaBH4 in PBS. After a 5 min incubation, the solution was removed by aspiration and the coverslips were washed with PBS.
Coverslips were transferred to parafilm-lined culture dishes (cell-side up), and 40 μL of 50 μg/mL RNase A in Antibody Diluting Solution (AbDil, PBS, pH 7.4, 0.2% TX-100, 2% BSA, 0.1% NaN3) with 1:50 dilution of anti-α-tubulin-FITC antibody was added to all samples. The samples were allowed to incubate at room temperature in the dark for 2.5 hours, after which the coverslips were washed three times with PBS+0.1% TX-100. […]

For orientation: IC50 means the concentration at which inhibition is half-maximal. As for `CN1C(=O)N[C@H]2[C@@H]3NC(=O)c4ccc(Br)n4[C@@H]3C[C@]21O` [(−)-1, (−)-agelastatin A], the “G2/M cell cycle arrest” value in the assay with synchronized U-937 cells is “dose-dependent G2/M cell cycle arrest”. Further, the “effect on tubulin dynamics” value in the assay with tubulin dynamics is given as “do not affect tubulin dynamics”. Further, the IC50 in the assay on HeLa was determined as 708 ± 90 nM; with BT549, 278 ± 76 nM; with IMR90, 1110 ± 350 nM; in the assay on A549 it was 1050 ± 140 nM; with Jurkat it was 74 ± 7 nM; with U-937, 67 ± 3 nM. In addition, the IC50 in the assay on CA46 was 187 ± 71 nM. For the same compound, the “apoptosis (phosphatidylserine exposure and propidium iodide inclusion)” value in the assay with U-937 cells is recorded as “induced dose-dependent apoptosis”. In addition, in [1], the “activation of procaspase-3 to active caspase-3 and cleavage of PARP-1” value was “dose-dependent activation”.
